Measured values taken from patent US12703729B2, “GIP agonist compounds and methods” (Zealand Pharma A/S, priority 2014, dated 2026).
pEC50: −log10 of the molar value. Starred links: 1 amine or outer side, 2 acyl side, 3 side chain; linkers in the order of their positions; H or OH if unused. Non-standard residues stand in square brackets, D forms with d. Residues, ends and D or L forms follow the SMILES beside them. Groups on a side chain read outwards from the residue. *: point of attachment. C20 diacid = O=C(O)CCCCCCCCCCCCCCCCCCC(=O)*; γGlu = O=C(O)[C@H](CCC(=O)[*:2])N[*:1]; AEEA = NCCOCCOCC(=O)O; Aib = CC(C)(N)C(=O)O

Columns and labels:
[1] = biological target: human GLP-1 receptor (GLP-1R) (Homo sapiens, UniProt P43220); assay: Activity assay at human GLP-1 receptor, cAMP induction (AlphaScreen), Example 3
[2] = biological target: T1, human GIP receptor (GIP R) (Homo sapiens, UniProt P48546); assay: Activity assay at human GIP receptor, cAMP induction (AlphaScreen), Example 3
T1 sequence (P48546 22-466): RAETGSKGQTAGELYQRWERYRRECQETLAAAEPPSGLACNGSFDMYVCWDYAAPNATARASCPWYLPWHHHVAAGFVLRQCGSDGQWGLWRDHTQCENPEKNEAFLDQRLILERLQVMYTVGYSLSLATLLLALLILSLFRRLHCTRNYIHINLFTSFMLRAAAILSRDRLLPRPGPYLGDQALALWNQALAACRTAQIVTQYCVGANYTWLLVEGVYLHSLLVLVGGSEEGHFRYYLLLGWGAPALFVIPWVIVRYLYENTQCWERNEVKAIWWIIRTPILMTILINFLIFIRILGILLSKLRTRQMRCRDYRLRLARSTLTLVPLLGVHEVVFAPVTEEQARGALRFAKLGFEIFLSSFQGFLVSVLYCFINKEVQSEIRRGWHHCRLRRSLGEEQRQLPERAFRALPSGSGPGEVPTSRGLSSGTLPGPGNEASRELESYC

[3] = male, C57BL/6J, mouse, in vivo
human GIP R = biological target: T2, human GIP R (Homo sapiens, UniProt P48546); assay: cell-based
T2 sequence (P48546 22-466): T1 sequence (P48546 22-466)

in vivo = conditions: male, C57BL/6J, mouse; for half-life: 200 nmol/kg

Chain of human GLP-1 receptor (GLP-1R) (P43220 24-463): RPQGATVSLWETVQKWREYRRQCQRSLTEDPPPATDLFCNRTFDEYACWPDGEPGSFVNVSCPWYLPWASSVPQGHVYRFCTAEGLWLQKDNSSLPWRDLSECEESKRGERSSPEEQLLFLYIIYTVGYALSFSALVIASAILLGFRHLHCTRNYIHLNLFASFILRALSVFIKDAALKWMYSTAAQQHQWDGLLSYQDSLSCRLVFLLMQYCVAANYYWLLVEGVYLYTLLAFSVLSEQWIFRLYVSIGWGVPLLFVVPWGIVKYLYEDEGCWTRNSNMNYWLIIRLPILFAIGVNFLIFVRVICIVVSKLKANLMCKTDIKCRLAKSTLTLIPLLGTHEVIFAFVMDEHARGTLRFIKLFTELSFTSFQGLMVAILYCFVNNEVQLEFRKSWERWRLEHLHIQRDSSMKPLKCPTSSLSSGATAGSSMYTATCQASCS

Compound: CC[C@H](C)[C@H](NC(=O)[C@H](CCCCN)NC(=O)[C@H](CC(=O)O)NC(=O)[C@H](CC(C)C)NC(=O)[C@H](CCC(=O)O)NC(=O)[C@@H](NC(=O)[C@H](CO)NC(=O)[C@H](Cc1ccc(O)cc1)NC(=O)[C@H](CC(=O)O)NC(=O)[C@H](CO)NC(=O)[C@@H](NC(=O)[C@H](Cc1ccccc1)NC(=O)[C@@H](NC(=O)CNC(=O)[C@H](CCC(=O)O)NC(=O)C(C)(C)NC(=O)[C@@H](N)Cc1ccc(O)cc1)[C@@H](C)O)[C@@H](C)CC)[C@@H](C)CC)C(=O)N[C@@H](C)C(=O)N[C@@H](C)C(=O)N[C@@H](CCC(N)=O)C(=O)N[C@@H](CC(=O)O)C(=O)N[C@@H](Cc1ccccc1)C(=O)N[C@H](C(=O)N[C@@H](CC(N)=O)C(=O)N[C@@H](Cc1c[nH]c2ccccc12)C(=O)N[C@@H](CC(C)C)C(=O)N[C@@H](CC(C)C)C(=O)N[C@@H](C)C(=O)NCC(=O)N1CCC[C@H]1C(=O)N[C@@H](CO)C(=O)N[C@@H](CO)C(=O)NCC(=O)N[C@@H](C)C(=O)N1CCC[C@H]1C(=O)N1CCC[C@H]1C(=O)N1CCC[C@H]1C(=O)N[C@@H](CO)C(=O)N[C@@H](CCCCNC(=O)COCCOCCNC(=O)COCCOCCNC(=O)CC[C@H](NC(=O)CCCCCCCCCCCCCCCCCCC(=O)O)C(=O)O)C(N)=O)C(C)C [Compound 16] (H-Y[Aib]EGTFISDYSIELDKIAAQDFVNWLLAGPSSGAPPPSK([AEEA-AEEA-γGlu-C20 diacid])-NH2)
- pEC50 [1]: < 8.00
- pEC50 [2]: 10.92
- Bioavailability s.c. [3]: 88%
- Terminal elimination half-life T½ i.v. ([3]; iv, 200 nmol/kg): 19.2 h
- Terminal elimination half-life T½ s.c. ([3]; sc, 200 nmol/kg): 16.7 h
- pEC50 (human GIP R): 10.80
- bioavailability (in vivo; Bioavailability s.c.): 81%
- half-life (in vivo; iv, Terminal elimination half-life T½ i.v.): 23.3 h
- Tmax (in vivo; sc): 8 h
- half-life (in vivo; sc, Terminal elimination half-life T½ s.c.): 23.6 h
